Measurements as given in US20250041427A1, “DINUCLEAR PHOSPHANE GOLD(I) COMPLEXES FOR TREATING CANCER” (priority 2023, published 2025).
Like-named read-outs stand apart in the source and are kept apart here.

How the values were obtained:
MCF-7 cancer cell line = settings: value from cited reference; read-out: IC50 MCF-7 (literature complexes); cited from earlier work
HCT116 cancer cell line = settings: value from cited reference; read-out: IC50 HCT116 (literature complexes); cited from earlier work
HCT116 cells = assay: AlamarBlue cell proliferation assay, HCT116; settings: for IC50: read-out: Half maximal inhibitory concentration (IC50) HCT116, 24 hours exposure, AlamarBlue, mean of three replicates ± standard error
Procedure: (§1) Human colorectal carcinoma cell line HCT116 and human breast adenocarcinoma cell line MCF-7 were purchased from ATCC. The cells were cultured in Dulbecco's Modified Eagle's Medium (DMVEM) complemented with 10% fetal bovine serum (FBS) at 37° C. (5% CO2 and 95% humidity). 100 µg/mL streptomycin and 100 U/mL penicillin were used in the media to prevent microbial growth. Assays were performed on cells from passages 3-8.
(§2) AlamarBlue® was used to determine the drug-dose response according to the manufacturer's instruction (Thermo Fisher, Waltham, Massachusetts, United States). The samples of complexes were diluted to a working concentration in DMVEM before their exposure to the cancer cells. The cancer cells were cultivated in 96-well plates for 24 hours. The cell culture medium was then removed and the diluted test compounds were added to the wells. The well plates were incubated for 24 hours at 37° C. with 5% CO2. Subsequently, the cell culture medium was removed for the addition of 10% AlamarBlue® (diluted in DMEM) to each well. The plates were incubated for 3 hours at 37° C. protected from light. The cytotoxicity/proliferation was measured using fluorescence spectrophotometry with fluorescence being read at an excitation wavelength of 560 nm and an emission wavelength of 590 nm. To calculate the percentage difference in reduction between treated and control cells in cytotoxicity/proliferation assays, the following formula was used: […]
(§3) The prepared […] complexes 1-4 were evaluated for their inhibition of cell proliferation towards two human cancer cell lines: HCT116 and MCF-7. The cells were treated with a range of concentrations (0.3, 1, 3, 10, 100 μM) of the complexes for 24 hours. The cells viability were then assessed and half maximal inhibitory concentration (IC50) values were calculated thereafter. […] These values are about 6- to 20-fold lower than cisplatin IC50 values.

MCF-7 cells [1] = assay: AlamarBlue cell proliferation assay, MCF-7; type: cell-based, human; settings: 24 hours exposure, mean of three replicates ± standard error
Procedure: as §1, §2, §3

MCF-7 cells [2] = assay: Mitochondrial membrane potential (ΔΨm), JC-1 dye; type: cell-based, human; settings: MCF-7, 24 hours
Procedure: MCF-7 cells (1×10^4 cells per well in a 96-well plate) were treated with different concentrations of complexes, and untreated cells were used as a negative control. After treatment for 24 hours, 5,5′,6,6′-tetrachloro-1,1′,3,3′-tetraethylbenzimidazolocarbocyanine iodide (JC-1) dye (Thermo Fisher, Waltham, Massachusetts, United States) was added to each well containing the cells. The staining was performed following the protocol provided by the manufacturer. A fluorescence spectrophotometer was used to measure the fluorescence of JC-1-stained cells, and fluorescence signals in the red and green channels were recorded separately.
To examine the effect of complexes 1-4 on mitochondrial membrane potential (ΔΨm), JC-1 fluorescence dye was used to stain intact and depolarized mitochondria in MCF-7 cells following exposure to the complexes.

[3] = Solution chemistry / stability by UV-Vis spectrophotometry; type: physicochemical; settings: room temperature; complexes 2, 3 in DMSO:H2O (3:7); complex 4 in 100% DMSO and DMSO:H2O (1:1)
Procedure: The solution chemistry of complexes 2, 3, and 4 ([…], 10 mL) was investigated using ultraviolet-visible (UV-Vis) spectrophotometry at room temperature. The studied complexes are partially soluble in aqueous solution. Complexes 2 and 3 were dissolved in the mixture of DMSO:H2O (3:7), where H2O is a co-solvent of DMSO. A UV-Vis experiment was performed initially at time=0 (2 and 3) and at time=24 hours (2′ and 3′) (FIG. 26A). Furthermore, complex 4 was dissolved in 100% DMSO and a mixture of (DMSO:H2O) (1:1), where H2O is co-solvent of DMSO. Further, a UV-Vis experiment was performed initially at time=0 (4) and at time=24 hours.

[4] = test system: prostate (PC-3) cancer cells; settings: PC-3 cells; cited from earlier work
[5] = test system: glioblastoma (U87-MG) cancer cells; settings: cited from earlier work
[6] = read-out: Half maximal inhibitory concentration (IC50) MCF-7

## [C](#Cc1ccncc1)[Au][PH](CCCC[PH]([Au][C]#Cc1ccncc1)(c1ccccc1)c1ccccc1)(c1ccccc1)c1ccccc1 [[Au2(dppb)(4-ep)2]]
MCF-7 cancer cell line
  IC50: 2800 ± 600 nM

## Chlorotriphenylposphine-1,3-bis(diphenylphosphino)propanegold(I) [[Au(dppp)(PPh3)Cl]]
HCT116 cancer cell line
  IC50: 4170 nM

## [Au2(Bdbp)(Dppe)]P2F12 [Complex 1]
HCT116 cells
  IC50: 8200 nM
MCF-7 cells [1]; [6]
  IC50: 7900 nM
MCF-7 cells [2]
  effect on mitochondrial membrane potential (ΔΨm) at 2.5 μM: least reduction of ΔΨm

## [Au2(Bdbp)(Dppp)]P2F12 [Complex 2]
HCT116 cells
  IC50: 3600 ± 370 nM
MCF-7 cells [1]; [6]
  IC50: 2300 ± 240 nM

## [Au2(Bdbp)(Dppb)]P2F12 [Complex 3]
HCT116 cells
  IC50: 1800 ± 220 nM
HCT116 cells; relative to complex 1, FIG. 24A/24E vs 24C/24G (HCT116 and MCF-7)
  increase of cytotoxic effect on lengthening linker from 2 carbons (complex 1) to 4 carbons: about 4.5 fold
MCF-7 cells [1]; [6]
  IC50: 1300 ± 540 nM
[3]
  stability in solution (UV-Vis, time 0 vs 24 hours): less stability

## N.N.[Cl][Pt][Cl] [Cisplatin, reference compound]
HCT116 cells
  IC50: 20800 ± 930 nM
MCF-7 cells [1]; [6]
  IC50: 21100 ± 1410 nM

## [Au2(Bdbp)(Dpma)]P2F12 [Complex 4]
HCT116 cells
  IC50: 930 nM
MCF-7 cells [1]; listed as 4, read-out: Half maximal inhibitory concentration (IC50) MCF-7
  IC50: 1200 ± 320 nM
MCF-7 cells [1]; listed as complex 4, read-out: Half maximal inhibitory concentration (IC50) MCF-7
  IC50: 1800 nM
MCF-7 cells [2]
  effect on mitochondrial membrane potential (ΔΨm) at 2.5 μM: most reduction of ΔΨm
[3]
  stability in solution (UV-Vis, time 0 vs 24 hours): high stability

## COc1cccc(OC)c1[PH]([Au+][PH](c1c(OC)cccc1OC)(c1c(OC)cccc1OC)c1c(OC)cccc1OC)(c1c(OC)cccc1OC)c1c(OC)cccc1OC.F[P-](F)(F)(F)(F)F [[Au{P(2,6-dimethoxyphenyl)3}2]PF6]
[4]
  fold higher cytotoxicity than cisplatin: 30 fold
[5]
  fold higher cytotoxicity than cisplatin: 30 fold
